# Experimental data published in patent publication US20250388565A1, “ESTROGEN RECEPTOR ALPHA DEGRADERS AND METHODS OF USE THEREOF” (Relay Therapeutics, Inc., priority 2022, published 2025).
# Target: T1, ERα protein (HiBiT-tagged) in ESR1_HiBiT KI MCF7 cells (Homo sapiens, UniProt P03372)
# T1 sequence (P03372 1-595): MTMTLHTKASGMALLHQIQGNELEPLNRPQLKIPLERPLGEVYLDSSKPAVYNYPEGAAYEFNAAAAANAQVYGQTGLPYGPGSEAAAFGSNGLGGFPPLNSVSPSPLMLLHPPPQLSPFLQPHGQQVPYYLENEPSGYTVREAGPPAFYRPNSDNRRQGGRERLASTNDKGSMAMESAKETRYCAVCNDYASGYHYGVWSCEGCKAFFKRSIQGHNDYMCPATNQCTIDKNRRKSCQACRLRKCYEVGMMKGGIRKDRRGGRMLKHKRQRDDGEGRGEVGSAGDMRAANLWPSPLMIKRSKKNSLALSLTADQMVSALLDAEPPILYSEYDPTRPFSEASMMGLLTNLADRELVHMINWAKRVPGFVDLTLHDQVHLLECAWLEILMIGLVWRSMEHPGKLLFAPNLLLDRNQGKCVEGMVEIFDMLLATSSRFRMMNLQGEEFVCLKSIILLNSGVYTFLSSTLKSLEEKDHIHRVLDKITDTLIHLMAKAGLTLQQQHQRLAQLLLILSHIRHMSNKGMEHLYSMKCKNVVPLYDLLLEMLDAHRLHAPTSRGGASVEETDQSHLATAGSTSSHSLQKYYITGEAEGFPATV
# Test: Nano Glo HiBiT Lytic Degradation Assay
# Type: cell-based
# Settings: 6 hours with compound, 14-point dose response 1:3, bell-shape curve fit, half-maximal effect of first Hill model, read-out: MCF7 ESR1 HiBiT - (DC50)
# Summary of the method: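 Lytic Nano-Glo HiBiT luminescence quantified ERα remaining after a 6 h, 37° C compound exposure of MCF7 cells carrying endogenous HiBiT-tagged ESR1. Dosing used 14 threefold dilutions from a 10 mM DMSO stock (0.1% DMSO final), run in duplicate. Signals were corrected for cell-free background and expressed relative to DMSO, and DC50 came from a bell-shaped curve fit (first Hill model half-maximum).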
row,SMILES,DC50
1,"C[C@@H]1C[C@@H](c2ccccc2)[C@@H](c2ccc(N3CCC(CN4CCN(c5ccc6c(c5)CN([C@H]5CCC(=O)NC5=O)C6=O)CC4)CC3)cc2)c2ccc(O)cc21 (single isomer, unassigned) [Compound I-332]",≥ 10000 nM
2,"C[C@]1(c2ccccc2)OCc2cc(O)ccc2[C@@H]1c1ccc(N2CCC(CN3CCN(c4ccc5c(c4)CN([C@H]4CCC(=O)NC4=O)C5=O)CC3)CC2)cc1 (single isomer, unassigned) [Compound I-345, (S)-3-(5-(4-((1-(4-((3*S,4*S)-7-hydroxy-3-methyl-3-phenylisochroman-4-yl)phenyl)piperidin-4-yl)methyl)piperazin-1-yl)-1-oxoisoindolin-2-yl)piperidine-2,6-dione]",5 nM
3,"Cc1ccc([C@H]2OCc3cc(O)ccc3[C@H]2c2ccc(N3CCC(CN4CCN(c5ccc6c(c5)CN([C@H]5CCC(=O)NC5=O)C6=O)CC4)CC3)cc2)cc1F (single isomer, unassigned) [Compound I-355]",0.27 nM
4,"Cc1ccc([C@@H]2OCc3cc(O)ccc3[C@@H]2c2ccc(N3CCC(CN4CCN(c5ccc6c(c5)CN([C@H]5CCC(=O)NC5=O)C6=O)CC4)CC3)cc2)cc1F (single isomer, unassigned) [Compound I-356]",54 nM
5,"Cc1ccc(F)cc1[C@H]1OCc2cc(O)ccc2[C@H]1c1ccc(N2CCC(CN3CCN(c4ccc5c(c4)CN([C@H]4CCC(=O)NC4=O)C5=O)CC3)CC2)cc1 (single isomer, unassigned) [Compound I-357]",0.51 nM
6,"O=C1CC[C@H](N2Cc3cc(N4CCN(CC5CCN(c6ccc([C@H]7c8ccc(O)cc8CO[C@@H]7c7ccc(O)cc7)cc6)CC5)CC4)ccc3C2=O)C(=O)N1 (single isomer, unassigned) [Compound I-359, (S)-3-(5-(4-((1-(4-((3R*,4R*)-7-hydroxy-3-(4-hydroxyphenyl)isochroman-4-yl)phenyl)piperidin-4-yl)methyl)piperazin-1-yl)-1-oxoisoindolin-2-yl)piperidine-2,6-dione]",0.16 nM
7,"O=C1CC[C@H](N2Cc3cc(N4CCN(CC5CCN(c6ccc([C@H]7c8ccc(O)cc8CO[C@H]7c7ccc(O)cc7)cc6)CC5)CC4)ccc3C2=O)C(=O)N1 (single isomer, unassigned) [Compound I-360]",0.38 nM
8,"O=C1CC[C@H](N2Cc3cc(N4CCN(CC5CCN(c6ccc([C@@H]7c8ccc(O)cc8CO[C@@H]7c7ccc8c(c7)CC8)cc6)CC5)CC4)ccc3C2=O)C(=O)N1 (single isomer, unassigned) [Compound I-363]",0.17 nM
9,"O=C1CC[C@H](N2Cc3cc(N4CCN(CC5CCN(c6ccc([C@H]7c8ccc(O)cc8CO[C@H]7c7ccc8c(c7)CC8)cc6)CC5)CC4)ccc3C2=O)C(=O)N1 (single isomer, unassigned) [Compound I-364]",≥ 10000 nM
10,"C[C@H]1O[C@H](c2ccccc2)[C@H](c2ccc(N3CCC(CN4CCN(c5ccc6c(c5)CN([C@H]5CCC(=O)NC5=O)C6=O)CC4)CC3)cc2)c2ccc(O)cc21 (single isomer, unassigned) [Compound I-367]",0.24 nM
11,"C[C@@H]1O[C@@H](c2ccccc2)[C@@H](c2ccc(N3CCC(CN4CCN(c5ccc6c(c5)CN([C@H]5CCC(=O)NC5=O)C6=O)CC4)CC3)cc2)c2ccc(O)cc21 (single isomer, unassigned) [Compound I-368]",3 nM
12,"Cc1c(F)cccc1[C@H]1OCc2cc(O)ccc2[C@H]1c1ccc(N2CCC(CN3CCN(c4ccc5c(c4)CN([C@H]4CCC(=O)NC4=O)C5=O)CC3)CC2)cc1 (single isomer, unassigned) [Compound I-379]",0.37 nM
13,"Cc1c(F)cccc1[C@@H]1OCc2cc(O)ccc2[C@@H]1c1ccc(N2CCC(CN3CCN(c4ccc5c(c4)CN([C@H]4CCC(=O)NC4=O)C5=O)CC3)CC2)cc1 (single isomer, unassigned) [Compound I-380]",77 nM

# Now from value to molecule:
row,DC50,SMILES
1,0.16 nM,"O=C1CC[C@H](N2Cc3cc(N4CCN(CC5CCN(c6ccc([C@@H]7c8ccc(O)cc8CO[C@@H]7c7ccccc7)cc6F)CC5)CC4)ccc3C2=O)C(=O)N1 (single isomer, unassigned) [Compound I-381]"
2,2 nM,"O=C1CC[C@H](N2Cc3cc(N4CCN(CC5CCN(c6ccc([C@H]7c8ccc(O)cc8CO[C@H]7c7ccccc7)cc6F)CC5)CC4)ccc3C2=O)C(=O)N1 (single isomer, unassigned) [Compound I-382]"
3,0.16 nM,"Cn1c(=O)n([C@H]2CCC(=O)NC2=O)c2ccc(N3CCN(CC4CCN(c5ccc([C@@H]6c7ccc(O)cc7CO[C@@H]6c6ccccc6)cc5)CC4)CC3)cc21 (single isomer, unassigned) [Compound I-387]"
4,40 nM,"Cn1c(=O)n([C@@H]2CCC(=O)NC2=O)c2ccc(N3CCN(CC4CCN(c5ccc([C@@H]6c7ccc(O)cc7CO[C@@H]6c6ccccc6)cc5)CC4)CC3)cc21 (single isomer, unassigned) [Compound I-388]"
5,0.28 nM,"O=C1CC[C@H](c2ccc(N3CCC4(CCN(CC5CCN(c6ccc([C@@H]7c8ccc(O)cc8CO[C@@H]7c7ccccc7)cc6)CC5)C4)CC3)cc2)C(=O)N1 (single isomer, unassigned) [Compound I-389]"
6,22 nM,"O=C1CC[C@@H](c2ccc(N3CCC4(CCN(CC5CCN(c6ccc([C@@H]7c8ccc(O)cc8CO[C@@H]7c7ccccc7)cc6)CC5)C4)CC3)cc2)C(=O)N1 (single isomer, unassigned) [Compound I-390]"
7,0.39 nM,"Cn1nc([C@H]2CCC(=O)NC2=O)c2ccc(N3CCN(CC4CCN(c5ccc([C@@H]6c7ccc(O)cc7CO[C@@H]6c6ccccc6)cc5)CC4)CC3)cc21 (single isomer, unassigned) [Compound I-394]"
8,0.28 nM,"Cn1nc([C@@H]2CCC(=O)NC2=O)c2ccc(N3CCN(CC4CCN(c5ccc([C@@H]6c7ccc(O)cc7CO[C@@H]6c6ccccc6)cc5)CC4)CC3)cc21 (single isomer, unassigned) [Compound I-395]"
9,0.19 nM,"O=C1CC[C@H](N2Cc3cc(N4CCN(CC5CCN(c6ccc([C@@H]7c8ccc(O)cc8CC[C@@H]7C7=CCCCC7)cc6)CC5)CC4)ccc3C2=O)C(=O)N1 (single isomer, unassigned) [Compound I-407]"
10,≥ 10000 nM,"O=C1CC[C@H](N2Cc3cc(N4CCC(CN5CCC(n6cc([C@@H]7c8ccc(O)cc8CC[C@@H]7c7ccccc7)cn6)CC5)CC4)ccc3C2=O)C(=O)N1 (single isomer, unassigned) [Compound I-409]"
11,≥ 10000 nM,"O=C1CC[C@H](N2Cc3cc(N4CCN(CC5CCN(c6ccc([C@@H]7c8ccc(O)cc8CC[C@@H]7c7cccc8c7CCC8)cc6)CC5)CC4)ccc3C2=O)C(=O)N1 (single isomer, unassigned) [Compound I-410]"
12,1 nM,"O=C1CC[C@H](N2Cc3cc(N4CCN(CC5CCN(c6ccc([C@H]7c8ccc(O)cc8CC[C@H]7c7cccc8c7CCC8)cc6)CC5)CC4)ccc3C2=O)C(=O)N1 (single isomer, unassigned) [Compound I-411]"
13,332 nM,"O=C1CC[C@H](N2Cc3cc(N4CCN(CC5CCN(c6ccc([C@@H]7c8ccc(O)cc8CC[C@@H]7c7ccc8c(c7)CCC8)cc6)CC5)CC4)ccc3C2=O)C(=O)N1 (single isomer, unassigned) [Compound I-412]"
14,0.27 nM,"O=C1CC[C@H](N2Cc3cc(N4CCN(CC5CCN(c6ccc([C@H]7c8ccc(O)cc8CC[C@H]7c7ccc8c(c7)CCC8)cc6)CC5)CC4)ccc3C2=O)C(=O)N1 (single isomer, unassigned) [Compound I-413]"
15,0.37 nM,"Cc1cc([C@H]2CCc3cc(O)ccc3[C@H]2c2ccc(N3CCC(CN4CCN(c5ccc6c(c5)CN([C@H]5CCC(=O)NC5=O)C6=O)CC4)CC3)cc2)n(C)n1 (single isomer, unassigned) [Compound I-414]"
16,0.02 nM,"Cc1cc([C@@H]2CCc3cc(O)ccc3[C@@H]2c2ccc(N3CCC(CN4CCN(c5ccc6c(c5)CN([C@H]5CCC(=O)NC5=O)C6=O)CC4)CC3)cc2)n(C)n1 (single isomer, unassigned) [Compound I-415]"
17,0.44 nM,"O=C1CC[C@H](N2Cc3cc(N4CCN(CC5CCN(c6ccc([C@H]7c8ccc(O)cc8CC[C@H]7C7=CCCCC7)cc6)CC5)CC4)ccc3C2=O)C(=O)N1 (single isomer, unassigned) [Compound I-416]"
18,0.33 nM,"C[C@]1(C2CCCCC2)OCc2cc(O)ccc2[C@H]1c1ccc(N2CCC(CN3CCN(c4ccc5c(c4)CN([C@H]4CCC(=O)NC4=O)C5=O)CC3)CC2)cc1 (single isomer, unassigned) [Compound I-418]"
19,2 nM,"C[C@@H]1C[C@H](c2ccccc2)[C@H](c2ccc(N3CCC(CN4CCN(c5ccc6c(c5)CN([C@H]5CCC(=O)NC5=O)C6=O)CC4)CC3)cc2)c2ccc(O)cc21 (single isomer, unassigned) [Compound I-419]"
20,2 nM,"C[C@H]1C[C@H](c2ccccc2)[C@H](c2ccc(N3CCC(CN4CCN(c5ccc6c(c5)CN([C@H]5CCC(=O)NC5=O)C6=O)CC4)CC3)cc2)c2ccc(O)cc21 (single isomer, unassigned) [Compound I-420]"
